Results published in patent US7179779B1, “Cationic bleach activator with enhanced hydrolytic stability” (North Carolina State University, priority 2006, dated 2007).
“Also recorded” adds a separate entry of the source. Where a name gives a salt, the structure may show the parent alone.

Columns and labels:
[1] = Available oxygen (AvO) of bleach activator storage solutions by modified iodometric titration; assay type: physicochemical; details: 10% w/w aqueous solution, pH 5 buffer, room temperature storage
Excerpt: Active or available oxygen (AvO) is a useful parameter for assessing the oxidizing power of hydrogen peroxide or peracids from bleach activators. See American Standard Test Method D 2180–89 (West Conshohocken: ASTM International, 2003); and J. K. Grime, A. D. Clauss and K. A. Leslie, Tenside Surf. Det., 29 (1992) 23. A modified iodometric titration method was used to measure the AvO of the presently disclosed bleach activators. See J. J. Lee, S. Lim, P. Hauser and D. Hinks, Color. Technol., 121 (2005) 37.
(§1) Aqueous solutions (10% w/w) of cationic bleach activators 3a–3e were prepared using pH 5 buffer solution. A buffer solution of pH 5 was made using sodium acetate (0.1 M)/acetic acid. Each solution was stored in an amber glass bottle at room temperature.
AvO of a bleach activator was measured using a previously described procedure. See J. J. Lee, S. Lim, P. Hauser and D. Hinks, Color. Technol., 121 (2005) 37, the disclosure of which is incorporated herein by reference in its entirety.
On the selected day, the pH value of each storage solution was recorded and a 2 mL aliquot was withdrawn and added to a mixture of deionized water, stabilizer (1 g/L), Na2CO3 (14 g/L) and H2O2 (50% w/w, 0.5 g/L) to make a total volume of 200 mL. Crushed ice (180 g) was added to the sample solution while stirring. Acetic acid (50 mL) and potassium iodide solution (10 mL, 10% w/v) were then added separately. Using 0.025N sodium thiosulfate solution, the sample solution was titrated until it turned colorless. AvO (ppm) of a bleach activator was calculated using Equation 3.
[formula] wherein, Vtotal and VH2O2 are the volume (mL) of Na2S2O3 solution required for the titration of sample and blank respectively.

[2] = compared with conventional peroxide bleaching; cited from earlier work
[3] = Hydrolysis kinetics of bleach activator storage solutions by HPLC analysis; assay type: physicochemical; details: 10% solution, pH 5, room temperature
Excerpt: Because the concentration of hydroxide ion, OH^−, in the cationic bleach activator solution is almost constant by using a buffer (pH 5), the decrease in the concentration of bleach activator can be expressed as equation 1:
[formula] wherein, [C] is the concentration of bleach activator at time t and k is the pseudo first order rate constant of hydrolysis. See M. B. Smith and J. March, March's Advanced Organic Chemistry: Reactions, Mechanisms, and Structure, 5th ed. (New York: Wiley, 2001) 291.
Equation 2 then can be derived from equation 1:
[formula] wherein, C0 and Ct are the concentration of bleach activator at initial time and time t, respectively.
as §1
The HPLC (Waters Breeze HPLC system, Waters Corporation, Milford, Mass., United States of America) with a C18 reverse-phase column (Waters Symmetry C18, 5 μm) was used to analyze the hydrolysis behaviors of the cationic bleach activators 3a–3e during storage. On the selected day, a 0.5 mL aliquot was withdrawn from each storage solution of 3a–3e and diluted with 24.5 mL of water. A 10-μL sample of the solution was injected into the HPLC. For the mobile phase, the gradient program using water with 0.005M heptanesulphonic acid as a solvent A and acetonitrile as a solvent B was used (Table 2). The flow rate was 1 mL/min.

[4] = Bleaching of cotton fabric with bleach activators, CIE whiteness index measurement; details: stored 10% w/w aqueous solutions, pH 5, bleaching at 70° C. for 50 min
Protocol: On the same day of the AvO measurement, bleaching was carried out with storage solutions of the bleach activators 3a–3e. Two grams of each solution was added to the bleaching solution, which comprised a wetting agent (1 g/L), stabilizer (1 g/L), NaOH (50% w/w, 3 g/L) and H2O2 (50% w/w, 3 g/L). Cotton fabric (10 g) was bleached in a laboratory IR dyeing machine (Ahiba Nuance, Datacolor International, Lawrenceville, N.J., United States of America) at a liquor ratio of 10:1. The temperature was raised to 70° C. at the rate of 4° C./min. After 50 min of bleaching, the bleaching bath was cooled to room temperature. The bleached fabric was rinsed thoroughly in tap water and air-dried.
The CIE Whiteness Index (WI) value was obtained for the bleached fabric using AATCC Test Method 110–1995. See AATCC Technical Manual, vol 75 (Research Triangle Park: American Association of Textile Chemists and colorists, 2000), the disclosure of which is incorporated herein by reference in its entirety.
The whiteness was measured on a UV calibrated Datacolor Spectraflash SF 600X (Datacolor Corporation, Lawrenceville, N.J., United States of America), under illuminant D65 using the 10° standard observer with specular and UV component included. Each sample was folded twice to give an opaque sample with four plies and whiteness was measured four times at different surfaces. The average value of CIE WI was recorded.

| Structure (SMILES) | rate of decrease of AvO over storage time [1] | melting point [°C] | hydrolytic stability under typical storage conditions [3] | pseudo first order rate constant of hydrolysis (ranking) [3] | further results |
| --- | --- | --- | --- | --- | --- |
| CC[N+](CC)(CC)Cc1ccc(C(=O)N2CCCCCC2=O)cc1.[Cl-] [Compound 3c, N-[4-(triethylammoniomethyl)benzoyl] caprolactam chloride] | second to that of 3b | 212 to 214 | – | – | bleaching performance [2]: satisfactory bleaching performance in a shorter time and at lower temperatures than conventional peroxide bleaching |
| CC[N+](CC)(CC)Cc1ccc(C(=O)N2CCCCCCC2=O)cc1 [Compound 3d, N-[4-(triethylammoniomethyl)benzoyl] heptalactam chloride] | – | – | more stable than TBCC | smaller than that of TBCC | – |
| CC[N+](CC)(CC)Cc1ccc(C(=O)N2CCCC2=O)cc1 (as salt: chloride) [Compound 3a, N-[4-(triethylammoniomethyl)benzoyl] butyrolactam chloride] | – | 228 to 230 | – | – | – |
| CC[N+](CC)(CC)Cc1ccc(C(=O)N2CCCCCCCC2=O)cc1 [Compound 3e, N-[4-(triethylammoniomethyl)benzoyl] octalactam chloride] | decreased the slowest | – | more stable than TBCC; also recorded: the most stable compound | smaller than that of TBCC | change of CIE-WI of cotton fabric bleached with stored activator solutions over storage time [4]: decreased slowest; rate constant of hydrolysis, times smaller than that of 3a [3]: about 3 times; rate constant of hydrolysis, times smaller than that of TBCC [3]: ~7 times |
| CC[N+](CC)(CC)Cc1ccc(C(=O)N2CCCCCCC2=O)cc1 (as salt: chloride) [Compound 3d, N-[4-(triethylammoniomethyl)benzoyl] heptalactam chloride] | – | 194 to 196 | – | – | – |
| CC[N+](CC)(CC)Cc1ccc(C(=O)N2CCCCCCCC2=O)cc1 (as salt: chloride) [Compound 3e, N-[4-(triethylammoniomethyl)benzoyl] octalactam chloride] | – | 183 to 185 | – | – | – |
| CC[N+](CC)(CC)Cc1ccc(C(=O)N2CCCC2=O)cc1 [Compound 3a, N-[4-(triethylammoniomethyl)benzoyl] butyrolactam chloride] | – | – | more stable than TBCC | smaller than that of TBCC | – |
| CC[N+](CC)(CC)Cc1ccc(C(=O)N2CCCCC2=O)cc1.[Cl-] [Compound 3b, N-[4-(triethylammoniomethyl)benzoyl] valerolactam chloride] | decreased the fastest | 187 to 189 | – | greatest | change of CIE-WI of cotton fabric bleached with stored activator solutions over storage time [4]: decreased fastest; rate constant of hydrolysis, times greater than that of 3c or TBCC [3]: two times greater |
